Data from US20180353445A1, “METHODS AND COMPOSITIONS RELATING TO PROTEASOME INHIBITOR RESISTANCE” (Whitehead Institute for Biomedical Research, priority 2017, published 2018).
“Also recorded” adds a separate entry of the source.

Tests used:
Assay type in all cases: cell-based, human
T47D cells = assay: Drug library screen (Selleck anti-cancer, NPC, NIH bioactive), PSMD2 KD vs control T47D cells; settings: for growth inhibition of T47D cells with reduced level of PSMD2 vs control T47D cells: Selleck anti-cancer compound library screen
Method: Schematic representation of the drug screen setup. (FIG. 37A) 147D cells harboring a doxycycline-inducible PSMD2 shRNA were grown in the presence or absence of doxycycline for 48 hr. Cells were then collected, washed, and plated in the absence of doxycycline for 24 hr prior to exposure different compounds. Relative cell numbers were measured 3 days later.
The relative viability of the Lo19S versus control cells was calculated for replica experiments and the log2 of the ratio is plotted. […] The relative viability of the respiring cells (Hi-OXPHOS) (gal) versus the control cells (glu) was calculated for replica experiments and the log2 of the ratio is plotted.
After 48 hours the cells were collected, counted, and plated at 1000 cells/well in 384 well plates in duplicates for each cell line. Compounds from the Selleck Chemicals anti-cancer compound library (349 drugs in 4 concentrations; […]) were pinned the next day and viability was measured after 72 hours by the reduction of Resazurin (Ex=530 run, Em=590nin). (See FIG. 37A for schematic of screen.)

[1] = system: T47D cells with doxycycline inducible PSMD2 KD (Lo19S) versus control cells; assay: Lo19S T47D drug screen (PSMD2 KD versus control cells, CellTiter-Glo); settings: T47D, Lo19S state by dox-inducible PSMD2 shRNA; compound library screen; 72 h; CellTiter-Glo
Method: The effect of each drug on viability of cells was calculated by averaging the duplicate experiments. The data is plotted in FIG. 16 as the log2 of the ratio of viability of PSMD2 KD versus control cells (log2 (shPSMD2/Control)). […] The Selleck natural product library (NPC) comprising 502 compounds in 5 doses and the. NIH bioactive compound library that includes 731 compounds in 4 doses were also screened using the same system.
A deeper understanding of the proteasome inhibitor resistant state could yield insights into the molecular mechanisms activated by cells to cope with proteotoxic stress and elucidate new therapeutic strategies for cancer. With these goals in mind, we screened mechanistically diverse small molecule libraries to identify compound sensitivities altered by the Lo19S and Hi-OXPHOS states. An initial screen was conducted in the isogenic T47D model with transient induction of the Lo19S state as described above, We evaluated >4300 mechanistically well-defined compounds within 4 libraries. The compounds included approved cancer drugs (Selleck anti-cancer library: CDL), common natural products (Natural product library: NPC) and an ^-NIH bioactives library (NIH). Each of these compounds was tested at ≥4 concentrations. (Table S5, data not shown), An additional 2866 compounds from the Boston University's Chemical Methodology and Library Development (CMLD-BU) small molecule collection was screened at a single dose (BULL, see Table S5).
Generation of the Lo19S T47D cell line—For the generation of the T47D Tet-inducible PSMD2 knockdown cell line—the TRIPZ vector with an inducible shRNA targeting PSMD2 was purchased from Dharmacon (clone V3THS_403760). It was introduced to the T47D cells according to manufactures protocol and cells were selected with puromycin […] for one week. The cells were exposed to doxycycline for 24 hours and cells were FACS sorted for the top 10% of most RFP expressing cells (highest expression of shRNA). The cells were further cultured in the absence of doxycycline and PSMD2 knockdown was induced as specified in the text.
After 48 hours the cells were collected counted and plated (in the absence of dox) at 1000 cells/well in 384-well opaque, white assay plates (Coming, NY), 50 uL per well, and incubated overnight at 37° C./5% CO2. Compound stocks from the Cancer drug library containing 349 bioactive compounds that were arrayed in dose 10 nM, 100 nM, 1 uM, 10 uM (Selleck anti-cancer compound library L3000), the natural products library containing 502 compounds that were utilized in 5 doses (dilution of 1:1000 of 2ug/ml, 0.2 ug/ml, 0.002/ug/ml, 0.0002 ug/ml), the NIH bioactive library including 731 drugs in dose of 10 nM, 100 nM, 1 uM, 10 uM and the Boston University's CMLD (Chemical Methodology and Library Development) compound deck containing 2866 compounds in one dose (10 uM), including novel chemotypes that uniquely probe three-dimensional space by employing stereochemical and positional variation within the molecular framework as diversity elements in library design. 50 nl of compounds were pin-transferred (V&P Scientific, CA, pin tool mounted onto Tecan Freedom Evo 150 MCA96 head, Tecan, Calif.) into duplicate assay plates and incubated for 72 h. The DMSO content was 0.1% within each well, Per plate, there are 32 wells of DMSO vehicle control and 32 wells of positive control compounds. After three days of incubation, 10 uL of CellTiter-Glo (Promega, Wis.) was added to each well, incubated for 10 minutes and the luminescence output was read on the M1000 Infinite Pro plate reader (Tecan, Calif.).

[2] = system: IMR32 (reduced PSMD5) and Kelly neuroblastoma cells; assay: Viability of IMR32 versus Kelly neuroblastoma cells (CellTiter-Glo); settings: for sensitivity of IMR32 cells relative to Kelly cells (fold viability): 72 hours after addition, CellTiter-Glo
Method: To determine whether these compounds also differentially affect cells with reduced expression of PSDMS, IMR32 and Kelly cells were each cultured in the presence of ABT-263, disulfiram, or elesclomol across a range of concentrations. Cell viability was measured by CellTiter-Glo® Luminescent Cell Viability Assay 72 hours after addition of the compound to cells. The fold viability relative to culture in the absence of the compound was determined for each cell line. […] In the experiment shown in FIG. 24, the lowest lower concentration of ABT-263 and disulfiram tested was 1 uM.
ABT-263 targets several members of the BCL2 family, including BCL2 and BCL-XL.

| Compound | sensitivity of proteasome inhibitor resistant cancer cells vs sensitive counterpart cells (T47D cells) | growth inhibition of T47D cells with reduced level of PSMD2 vs control T47D cells (T47D cells) | viability of PSMD2 KD versus control cells (log2 (shPSMD2/Control)) [1] | sensitivity of IMR32 cells relative to Kelly cells (fold viability) [2] | preferential sensitivity of IMR32 versus Kelly cells, compared among BCL2 family inhibitors ([2]; ABT-263 versus more specific BCL2, BCL-XL and MCL-1 inhibitors) | effect of reintroduction (forced expression) of the PSMD5 subunit in IMR32 cells on sensitivity ([2]; IMR32 cells, PSMD5 epigenetically suppressed) |
| --- | --- | --- | --- | --- | --- | --- |
| CC1(C)CCC(c2ccc(Cl)cc2)=C(CN2CCN(c3ccc(C(=O)NS(=O)(=O)c4ccc(N[C@H](CCN5CCOCC5)CSc5ccccc5)c(S(=O)(=O)C(F)(F)F)c4)cc3)CC2)C1 [ABT-263, navitoclax] | highly sensitive | selectively inhibits growth | selectively reduce the viability of PSMD2 KD cells versus control cells; also recorded: selectively sensitized cells | dramatically more sensitive; also recorded: significantly more sensitive | much greater for ABT-263 | did not significantly alter |
| CC(C)C[C@H](NC(=O)[C@H](Cc1ccccc1)NC(=O)c1cnccn1)B(O)O [bortezomib] | – | – | selectively reduce viability of control cells versus PSMD2 KD cells | increased resistance | – | – |
| CN(NC(=O)CC(=O)NN(C)C(=S)c1ccccc1)C(=S)c1ccccc1 [elesclomol] | highly sensitive | selectively inhibit growth | selectively reduce the viability of PSMD2 KD cells versus control cells; also recorded: selectively sensitized cells; also recorded: highly effective in slowing the growth of cells in the Lo19S state | dramatically more sensitive | – | – |
